Measurements: patent US9834549B2, “3,3-disubstituted-(8-aza-bicyclo[3.2.1]OCT-8-yl)-[5-(1H-pyrazol-4-yl)-thiophen-3-yl]-methanones as inhibitors of 11 (β)-HSD1” (The University Of Edinburgh, priority 2010, dated 2017)
pIC50: −log10 of the molar value.

Assays:
[1] = biological target: T1, human 11β-HSD2 (Homo sapiens, UniProt P80365); assay: Cellular in vitro 11β-HSD2 enzyme inhibition assay (CHO cells); assay type: cell-based; details: CHO cells transfected with human 11β-HSD2
T1 construct: CHO cells stably transfected with the full-length gene coding for human 11β-HSD2 were used; expressed in transfected cells; host or cells: CHO (stably transfected)
T1 sequence (P80365 1-405): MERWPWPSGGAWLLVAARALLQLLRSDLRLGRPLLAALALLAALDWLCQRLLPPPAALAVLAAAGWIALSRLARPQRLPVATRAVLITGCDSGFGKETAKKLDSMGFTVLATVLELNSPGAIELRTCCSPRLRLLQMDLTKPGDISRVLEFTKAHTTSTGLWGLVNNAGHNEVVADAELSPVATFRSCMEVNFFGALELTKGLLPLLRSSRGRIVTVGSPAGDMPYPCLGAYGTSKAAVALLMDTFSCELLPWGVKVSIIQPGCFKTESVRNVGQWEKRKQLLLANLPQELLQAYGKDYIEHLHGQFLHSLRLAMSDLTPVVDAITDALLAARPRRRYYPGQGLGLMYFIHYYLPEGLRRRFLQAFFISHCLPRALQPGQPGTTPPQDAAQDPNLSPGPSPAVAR
Description: For measurement of inhibition of 11β-HSD2, CHO cells stably transfected with the full-length gene coding for human 11β-HSD2 were used. Assays were carried out in 96-well microplates containing 1×10^5 cells/well. Controls and compounds were plated as above, so that the final DMSO concentration in each well was 1%. To initiate the assay, 90 μL of a solution of HAMS F-12 medium containing 1% glutamine, 1% penicillin and streptomycin, and 22 nM tritiated cortisol was added to each well of the assay plate. The plate was then incubated in 5% CO2, 95% O2 at 37° C. for 16 hours.
The assay solutions were transferred to glass tubes and […] added to each tube. Each tube was vortexed thoroughly and the upper layer containing the tritiated steroid transferred to a fresh glass tube. The solvent was evaporated by placing the tubes in a heating block at 65° C. under a stream of nitrogen gas. 20 μL ethanol was added to each of the dried samples and vortexed briefly. Each sample was applied to a silica TLC plate and the plate dried. The plate was placed vertically in a glass tank containing 92% chloroform: 8% ethanol and the solvent allowed to rise up the plate. The plate was dried, placed in an imaging cassette, and overlayed with a tritium imaging plate for 1-2 days. The amount of enzyme inhibition in each sample was determined by measuring the intensity of the substrate and product spots using a phospho-imager. IC50 values for inhibitors were determined as described above for 11β-HSD1.

[2] = Oral exposure and tissue distribution in rats; assay type: in vivo, male Sprague Dawley rats; details: rat, oral 10 mg/kg; for Cmax: male, Sprague Dawley, plasma, read-out: Plasma Cmax (maximum plasma concentration)
Description: The circulating plasma levels and tissue distribution of certain compounds were determined following oral administration of compound (10 mg/kg) to male Sprague Dawley rats. Rats (n=3 per group) were culled at 1, 4 and 6 hours post dosing and trunk blood and tissues (liver, adipose and brain) excised. Blood samples at 30 minutes and 2 hours post dosing were taken by tail nick from the 4 hour and 6 hour rats respectively.
Compound was triple extracted from plasma (prepared from blood by a high speed centrifugation step) spiked with 1 μg of a standard compound using ethyl acetate. Extracts were dried under nitrogen and re-suspended in 60% methanol/40% ammonium acetate (5 mM).
A known weight of tissue was homogenized in 3 volumes Krebs buffer. Compound was triple extracted with ethyl acetate from the supernatant of a low speed spin spiked with 1 μg of a standard compound. Extracts were dried under nitrogen and re-suspended in 60% methanol/40% ammonium acetate (5 mM).
Samples from plasma and tissue were analyzed by TSQ Quantum Discovery Tandem Mass Spectrometer and Surveyor Liquid Chromatogram (Thermo, Hemel-Hempstead, UK). 10 μL of each sample was injected in a mobile phase consisting of 60%:40% methanol:5 mM ammonium acetate at a flow rate of 0.5 mL/minute. The column used was a BDS hypersil, C18, 50×2.1 mm with a 5 μm particle size.
Each compound was tuned with a spray voltage of 3000 V and a capillary temperature of 300° C. and values for tube lens, CID and product ions were determined.
The peak area for each compound and for the internal standard was determined and the concentration of compound per gram of tissue or mL of plasma was calculated by comparison of the peak area ratio to a standard curve.

| SMILES | pIC50 [1] | Cmax [2] | Liver Cmax (maximum liver concentration) [2] |
| --- | --- | --- | --- |
| O=C(c1csc(-c2cn[nH]c2)c1)N1C2CCC1CC(O)(c1ncccn1)C2 (stereo not drawn) [XX-20, (3-Hydroxy-3-pyrimidin-2-yl-8-aza-bicyclo[3.2.1]oct-8-yl)-[5-(1H-pyrazol-4-yl)-thiophen-3-yl]-methanone] | < 5.00 | > 1000 ng/mL | +++ (>5001 +++) |
| O=C(c1csc(-c2cn[nH]c2)c1)N1C2CCC1CC(O)(c1nccs1)C2 (stereo not drawn) [XX-29] | < 5.00 | 501 to 1000 ng/mL | ++ (3001-5000 ++) |
